# Measured values as given in publication PMC9885069 (Scientific Reports, 2023).
# pIC50: −log10 of the molar value. “Also recorded” adds a separate entry of the source. Read-outs that look alike come from different tables or passages of the source.
# How the values were obtained:
# 01SD NPC cultures = assay: Cytotoxicity in uninfected NPC cultures, flow cytometry with fixable viability dye; details: uninfected 01SD NPCs; for cell viability of treated cultures: concentrations up to 50 μM
# HSV-1 [1] = assay type: cell-based; details: 10 μM; for reduction of the percentage of EGFP+-RFP+ cells compared to infected cells exposed to vehicle: MOI 0.1, day 3 p.i.; for anti-HSV-1 activity in NPCs: 01SD and 9001 NPCs, day 3 p.i.
# HSV-1 [2] = assay: microbe, parasite or virus in culture; assay type: cell-based; details: for inhibition of HSV-1 infection (EGFP and RFP reporter expression) in brain organoids: 9001 and 01SD fourteen-week old organoids, 6000 pfu/organoid, compounds 10 μM, ACV 50 μM, day 3 p.i.
# [3] = tested on: SARS-CoV-2 (isolate USA WA1/2020); assay: NIH-NIAID in vitro SARS-CoV2 viral replication assay in Calu3 cells; assay type: cell-based; details: for therapeutic selectivity: CC50/IC50 in Calu3 cells
# [4] = Toxicity (cell number) in Calu3 cells in the SARS-CoV-2 assay; assay type: cell-based; details: human, Calu3 (ATCC, HTB-55) cells infected with SARS-CoV-2, 48 h post-infection
# [5] = tested on: host cell gene expression in 02SF NPCs; assay: RNA sequencing and Ingenuity Pathway Analysis of uninfected NPCs; assay type: cell-based, human; details: 10 μM
# [6] = tested on: eIF2α phosphorylation on serine 51; assay: Immunocytochemistry of eIF2α phosphorylated on serine 51 in NPCs; assay type: cell-based, human; details: 9001 NPCs, 10 μM, 24 h, compared to untreated or 7-treated NPCs
# Description: The RNA sequencing data is thus fully consistent with the hypothesis that 2b and 8 trigger a host antiviral response by activating an ISR.
# Figure 8 Activation of the integrated stress response in 2b- and 8-treated NPCs. (A) NPCs derived from 9001 iPSC lines were exposed to compounds 7, 8, and 2b (10 μM). After 24 h, cells were fixed and stained with an antibody that detects eIF2α phosphorylated on Serine 51 (EIF2S1). Nuclei were counterstained with Hoechst 33342, and phosphorylation was assessed by fluorescence microscopy. (B) The corrected total cell fluorescence (CTCF) was obtained by measuring EIF2S1 fluorescence in cells where a fluorescent signal could be detected and normalizing for cellular area using equation CTCF = integrated density − (cellular area × mean fluorescence of background readings). Error bars are standard deviations. One-way analysis of variance (ANOVA) followed by Bonferroni post-hoc test was used to compare CTCF among the different conditions: ** (P = 0.0042); **** (P < 0.0001). (C,D) Up-regulation of the EIF2A kinase EIF2AK3 (C) and the activated transcription factor 4 (ATF4) (D) in 2b- and 8-treated NPCs. Fold-changes were calculated from RNA-seq data described in the methods section. (E) Proposed mechanism of action of 2b and 8.
# HSV-1 [7] = details: cited from earlier work
# [8] = tested on: fibroblasts, hepatocytes, iPSC-derived neural progenitor cells; design: method as in PMID 30413769; details: cited from earlier work
# [9] = cited from earlier work
# human brain organoids = assay: Organoid viability, calcein AM assay; assay type: cell-based; design: organoid viability: dose or concentration left out as unconfirmed
# Description: Sixteen-week old brain organoids were infected as described above and exposed after 2 h to increasing 8 concentration ranging from 0.01 to 50 μM. At day 3 p.i. the IC50 of 8 was determined by measuring the intensity of the fluorescent reporter gene EGFP (whose expression is under the control of promoter of the immediate early HSV-1 gene ICP0) in the infected organoids was investigated. The EGFP expression was used as a proxy for viral gene expression during early stages of HSV-1 acute infection.
# Figure 6 Antiviral efficacy and cytotoxicity of 8 against HSV-1 in human brain organoids. […] The IC50 was estimated by determining the corrected total cell fluorescence (CTCF) obtained by measuring EGFP fluorescence in organoids using ImageJ and normalizing for background using equation CTCF = integrated density − (area of the organoid × mean fluorescence of background readings). (B) Cytotoxicity of 8 without HSV-1 infection was assessed using calcein-AM. The fluorescence of calcein-AM in each organoid was measured and CTCF was determined as described above. […] 9001 and 01SD are printed as plot headings and were read as the test systems (organoid lines), not as substances. […]
# Organoids viability was analyzed using calcein AM assay (BioLegend; catalogue # 425201), according to manufacturer’s instructions. […]
# HSV-1 strain 17syn+ = assay: Mouse ocular model of HSV-1 infection, plaque assay of eye swabs; assay type: in vivo, ND4 Swiss mice
# Description: The antiviral efficacy of compound 8 was further investigated and confirmed in an in vivo mouse model. ND4 Swiss mice were infected in the eyes with HSV-1 following light corneal scarification as described in the Materials and Methods section. At the same time that the virus was applied, one group of mice (n = 10) were treated a 50uM solution of compound 8 in DMSO and the other group (n = 10) were treated DMSO (vehicle). The eyes were treated with either vehicle or compound 8 each day for 4 days. The eyes were swabbed daily and infectious virus shedding was assessed by standard plaque assay.
# Figure 9 In vivo antiviral activity. ND4 swiss mice were infected by corneal scarification with 1 × 10^5 pfu of HSV-1 strain 17syn+. Eyes were swabbed daily for 4 days and assayed for infectious virus by standard plaque assay.
# ND4 Swiss mice, 4–6 weeks of age, (Envigo labs) were infected by the ocular route. Mice were anesthetized with isoflurane and the cornea were lightly scarified with a 23 ga. needle. 1 × 10^5 pfu (in 5 µl) of HSV-1 strain 17syn+ was applied to the corneal surface. At the same time, one group of mice (n = 10) were treated with 2 µL of a 50 µM solution of compound 8 in DMSO and the other group (n = 10) were treated with 2 µL DMSO (vehicle), applied to the eyes. The eyes were treated with either vehicle or compound 8 each day for 4 days. In order to assess the effect of compound 8 on the course of the infection, the eyes were swabbed daily with a Dacron swab, and the virus eluted in MEM medium. The swab eluate was assessed for the presence of infectious virus by standard plaque assay on rabbit skin cell monolayers.
smiles,measurement,setting,value
"Nc1nc2c(ncn2COCCO)c(=O)[nH]1 [ACV, acyclovir]",cell viability of treated cultures,01SD NPC cultures,comparable
"O=C1N[C@H]2[C@H](O)[C@H](O)[C@@H](O)C[C@@H]2c2cc3c(cc21)OCO3 [Compound 2b, trans-dihydrolycoricidine, reference compound]",reduction of the percentage of EGFP+-RFP+ cells compared to infected cells exposed to vehicle,HSV-1 [1]; 01SD NPCs,8016 fold
same,reduction of the percentage of EGFP+-RFP+ cells compared to infected cells exposed to vehicle,HSV-1 [1]; 9001 NPCs,424 fold
same,inhibition of HSV-1 infection (EGFP and RFP reporter expression) in brain organoids,HSV-1 [2],no expression of EGFP and RFP reporter genes
same,therapeutic selectivity,[3],19
same,CC50 at 48 h,[4],3480 nM
same,expression of activated transcription factor 4 (ATF4) (RNA-seq),[5],Up-regulation
same,expression of the EIF2A kinase EIF2AK3 (RNA-seq),[5],Up-regulation
same,eIF2α ~ P immunoreactivity,[6],increased
same,inhibition of HSV-1 replication,HSV-1 [7]; compared with acyclovir (ACV),more efficaciously than acyclovir
same,HSV-1 reactivation from latency,HSV-1 [7]; ex vivo mouse model,prevents HSV-1 reactivation from latency
same,potency against HSV-1 strains resistant to ACV,HSV-1 [7]; tk- strain and PAAv strain,moderate potency
same,toxicity in comparison to acyclovir,[8]; fibroblasts and hepatocytes,Slightly higher toxicity
same,toxicity in comparison to acyclovir,[8]; iPSC-derived neural progenitor cells (NPCs),lower toxicity
same,concentration from which a reduction in cell viability was observed,01SD NPC cultures,≥ 25 µM
O=C1N[C@H]2[C@H](O)[C@H](O)[C@@H](O)CN2c2cc3c(cc21)OCO3 [Compound 4],antiviral activity,[9],totally devoid of antiviral activity
"COc1ccc2c(c1)[C@H]1C[C@H](O)[C@@H](O)[C@@H](O)[C@@H]1NC2=O [Compound 5, (2S,3R,4S,4aR,10bR)-2,3,4-Trihydroxy-9-methoxy-1,3,4,4a,5,10b-hexahydrophenanthridin-6(2H)-one]",anti-HSV-1 activity in NPCs,HSV-1 [1],no anti-HSV-1 activity
"O=C1N[C@H]2[C@H](O)[C@H](O)[C@@H](O)C[C@@H]2c2cc(O)ccc21 [Compound 6, (2S,3R,4S,4aR,10bR)-2,3,4,9-Tetrahydroxy-1,3,4,4a,5,10b-hexahydrophenanthridin-6(2H)-one]",anti-HSV-1 activity in NPCs,HSV-1 [1],no anti-HSV-1 activity
same,inhibition of HSV-1 infection (EGFP and RFP reporter expression) in brain organoids,HSV-1 [2],no anti-HSV-1 activity
"COc1cccc2c1C(=O)N[C@H]1[C@H](O)[C@H](O)[C@@H](O)C[C@H]21 [Compound 7, (2S,3R,4S,4aR,10bR)-2,3,4-Trihydroxy-7-methoxy-1,3,4,4a,5,10b-hexahydrophenanthridin-6(2H)-one]",anti-HSV-1 activity in NPCs,HSV-1 [1],no anti-HSV-1 activity
same,inhibition of HSV-1 infection (EGFP and RFP reporter expression) in brain organoids,HSV-1 [2],no anti-HSV-1 activity
"O=C1N[C@H]2[C@H](O)[C@H](O)[C@@H](O)C[C@@H]2c2cccc(O)c21 [Compound 8, (2S,3R,4S,4aR,10bR)-2,3,4,7-Tetrahydroxy-1,3,4,4a,5,10b-hexahydrophenanthridin-6(2H)-one]",reduction of the percentage of EGFP+-RFP+ cells compared to infected cells exposed to vehicle,HSV-1 [1]; 01SD NPCs,6.76 fold
same,reduction of the percentage of EGFP+-RFP+ cells compared to infected cells exposed to vehicle,HSV-1 [1]; 9001 NPCs,4.65 fold
same,inhibition of HSV-1 infection (EGFP and RFP reporter expression) in brain organoids,HSV-1 [2],no expression of EGFP and RFP reporter genes
same,pIC50,"HSV-1 [2]; Human alphaherpesvirus 1, 72 h, read-out: IC50 of HSV-1 infection (EGFP intensity), 01SD organoids, sixteen-week old, day 3 p.i.",6.68
same,pIC50,"HSV-1 [2]; Human alphaherpesvirus 1, 72 h, read-out: IC50 of HSV-1 infection (EGFP intensity), 9001 organoids, sixteen-week old, day 3 p.i.",6.30
same,pIC50,"HSV-1 [2]; Human alphaherpesvirus 1, read-out: IC50 (EGFP CTCF), printed in Figure 6A, 01SD organoids",6.68
same,pIC50,"HSV-1 [2]; Human alphaherpesvirus 1, read-out: IC50 (EGFP CTCF), printed in Figure 6A, 9001 organoids",6.30
same,organoid viability,human brain organoids,No significant reduction
same,organoid viability (calcein AM),"human brain organoids; without HSV-1 infection, concentrations up to 50 μM",No significant reduction; also recorded: No significant differences in cell viability
same,therapeutic selectivity,[3],20
same,CC50 at 48 h,[4],1920 nM
same,expression of activated transcription factor 4 (ATF4) (RNA-seq),[5],Up-regulation
same,expression of the EIF2A kinase EIF2AK3 (RNA-seq),[5],Up-regulation
same,eIF2α ~ P immunoreactivity,[6],increased
same,yield of infectious virus in the tears (HSV-1 shedding) compared to vehicle treated eyes,"HSV-1 strain 17syn+; mouse eyes, 50 µM solution in DMSO, daily for 4 days",dramatically reduced; also recorded: dramatically reduces HSV-1 shedding
same,reduction of peak titer of infectious virus,"HSV-1 strain 17syn+; mouse eyes, 50 µM solution in DMSO, daily for 4 days, vs vehicle",reduced almost threefold
same,yield of infectious virus in the tears (HSV-1 shedding) compared to vehicle treated eyes,"HSV-1 strain 17syn+; mouse eyes, 50 µM solution in DMSO, daily for 4 days, listed as 7-hydroxyl derivative",dramatically reduced HSV-1 shedding
same,delay of peak titer of infectious virus,HSV-1 strain 17syn+; vehicle peak at day 2 post-infection,delayed by one day
same,cell viability of treated cultures,01SD NPC cultures,comparable
CCC(CC)COC(=O)[C@H](C)N[P@](=O)(OC[C@H]1O[C@@](C#N)(c2ccc3c(N)ncnn23)[C@H](O)[C@@H]1O)Oc1ccccc1 [remdesivir],pIC50,"[3]; Severe acute respiratory syndrome coronavirus 2, Calu-3, Calu3 cells, MOI=0.5, 2 h pretreatment, 48 h post-infection, read-out: IC50 (infection, dsRNA+ cells/total cell number)",7.22
